Laboratory results from ChEMBL document CHEMBL3352672, “Lithocarpic acids O-S, five homo-cycloartane derivatives from the cupules of Lithocarpus polystachyus” (Bioorg Med Chem Lett, 2014).

Experiments:
Assay type in all cases: cell-based
[1] = molecular target: 11-beta-hydroxysteroid dehydrogenase 1 (Mus musculus) (UniProt P50172); assay: Inhibition of mouse 11beta-HSD1 in expressed in HEK293 cells microsomal fractions incubated with NADPH and [3H]-cortisone at 10 uM by scintillation proximity assay
Sequence of 11-beta-hydroxysteroid dehydrogenase 1 (Mus musculus) (P50172 whole entry, looked up): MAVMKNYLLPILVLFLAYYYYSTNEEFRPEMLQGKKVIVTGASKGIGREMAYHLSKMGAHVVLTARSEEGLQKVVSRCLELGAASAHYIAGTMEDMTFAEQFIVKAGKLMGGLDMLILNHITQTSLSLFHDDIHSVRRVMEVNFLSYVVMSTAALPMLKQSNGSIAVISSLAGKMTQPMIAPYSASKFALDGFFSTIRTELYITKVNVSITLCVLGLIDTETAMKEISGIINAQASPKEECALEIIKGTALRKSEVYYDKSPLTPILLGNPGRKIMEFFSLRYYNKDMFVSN

[2] = molecular target: T1, 11-beta-hydroxysteroid dehydrogenase 1 (Homo sapiens, UniProt P28845); assay: Inhibition of human 11beta-HSD1 in expressed in HEK293 cells microsomal fractions incubated with NADPH and [3H]-cortisone by scintillation proximity assay
Target sequence in this assay (P28845 whole entry): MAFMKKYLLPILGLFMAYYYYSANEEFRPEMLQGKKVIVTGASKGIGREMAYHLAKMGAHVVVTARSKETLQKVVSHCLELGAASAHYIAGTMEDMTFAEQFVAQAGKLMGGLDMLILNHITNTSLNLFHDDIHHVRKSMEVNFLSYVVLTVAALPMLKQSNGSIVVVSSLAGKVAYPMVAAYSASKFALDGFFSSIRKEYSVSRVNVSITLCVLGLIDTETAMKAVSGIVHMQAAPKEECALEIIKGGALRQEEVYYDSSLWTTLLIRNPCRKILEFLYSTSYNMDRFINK

[3] = molecular target: 11-beta-hydroxysteroid dehydrogenase 1 (Mus musculus, UniProt P50172); assay: Inhibition of mouse 11beta-HSD1 in expressed in HEK293 cells microsomal fractions incubated with NADPH and [3H]-cortisone by scintillation proximity assay
Sequence of 11-beta-hydroxysteroid dehydrogenase 1 (Mus musculus, UniProt P50172) (P50172 whole entry): as the sequence (P50172 whole entry, looked up) above

[4] = molecular target: T1, 11-beta-hydroxysteroid dehydrogenase 1; assay: Inhibition of human 11beta-HSD1 in expressed in HEK293 cells microsomal fractions incubated with NADPH and [3H]-cortisone at 10 uM by scintillation proximity assay
Target sequence in this assay (P28845 whole entry, looked up): as the sequence (P28845 whole entry) above

| inhibition [1] [%] | IC50 [2] [µM] | IC50 [3] [µM] | inhibition [4] [%] | SMILES |
| --- | --- | --- | --- | --- |
| > 60 | 2.3 |  |  | C=C(CC[C@@H](C(=O)O)[C@H]1CC[C@@]2(C)[C@@H]3CC[C@H]4C(C)(C)C(=O)CC[C@@]45C[C@@]35CC[C@]12C)C(C)C |
| 94 | 1.4 | 0.49 | > 80 | C=C(CC[C@@H](CO)[C@H]1CC[C@@]2(C)[C@@H]3CC[C@@H](C(=C)C)[C@@]4(CCC(=O)O)C[C@@]34CC[C@]12C)C(C)C |
| 73 | 4.1 | 2.8 | > 60 | C=C(CC[C@@H](COC(C)=O)[C@H]1CC[C@@]2(C)[C@@H]3CC[C@@H](C(=C)C)[C@@]4(CCC(=O)O)C[C@@]34CC[C@]12C)C(C)C |
|  | 3.8 |  |  | C=C(CC[C@@H](COC(C)=O)[C@H]1CC[C@@]2(C)[C@@H]3CC[C@@H](C(C)(C)O)[C@@]4(CCC(=O)O)C[C@@]34CC[C@]12C)C(C)C |
